Numbers after ± are expanded uncertainties.
Details: for mass density: Liquid

| SMILES | surface tension liquid-gas (293.15 K) | mass density (293.15 K) | surface tension liquid-gas (298.15 K) | mass density (298.15 K) | surface tension liquid-gas (303.15 K) | mass density (303.15 K) | surface tension liquid-gas (308.15 K) | mass density (308.15 K) | surface tension liquid-gas (313.15 K) | mass density (313.15 K) | surface tension liquid-gas (318.15 K) | mass density (318.15 K) | surface tension liquid-gas (323.15 K) | mass density (323.15 K) | surface tension liquid-gas (328.15 K) | mass density (328.15 K) | surface tension liquid-gas (333.15 K) | mass density (333.15 K) | surface tension liquid-gas (338.15 K) | mass density (338.15 K) |
| --- | --- | --- | --- | --- | --- | --- | --- | --- | --- | --- | --- | --- | --- | --- | --- | --- | --- | --- | --- | --- |
| CCOP(=O)([O-])OCC.CCn1cc[n+](C)c1 [1-ethyl-3-methylimidazolium diethyl phosphate] | 36.1 ± 1.3 mN/m | 1141.3 ± 3.9 kg/m3 | 35.88 ± 1.3 mN/m | 1140 ± 3.9 kg/m3 | 35.43 ± 1.3 mN/m | 1132.1 ± 3.8 kg/m3 | 35.3 ± 1.3 mN/m | 1129.7 ± 3.7 kg/m3 | 35.07 ± 1.3 mN/m | 1125.1 ± 3.7 kg/m3 | 34.61 ± 1.2 mN/m | 1120.4 ± 3.6 kg/m3 | 34.55 ± 1.2 mN/m | 1118 ± 3.5 kg/m3 | 34.21 ± 1.2 mN/m | 1112.9 ± 3.5 kg/m3 | 33.88 ± 1.2 mN/m | 1111.1 ± 3.4 kg/m3 | 33.75 ± 1.2 mN/m | 1108 ± 3 kg/m3 |
| COP(=O)([O-])OC.Cn1cc[n+](C)c1 [1,3-dimethylimidazolium dimethylphosphate] | 47.42 ± 1.6 mN/m | 1244 ± 5.7 kg/m3 | 47.09 ± 1.6 mN/m | 1242 ± 5.7 kg/m3 | 47.11 ± 1.6 mN/m | 1238.7 ± 5.6 kg/m3 | 46.28 ± 1.6 mN/m | 1234.9 ± 5.5 kg/m3 | 45.11 ± 1.6 mN/m | 1229.7 ± 5.5 kg/m3 | 44.44 ± 1.6 mN/m | 1226.8 ± 5.4 kg/m3 | 43.01 ± 1.5 mN/m | 1223.9 ± 5.4 kg/m3 | 42.58 ± 1.5 mN/m | 1218.5 ± 5.3 kg/m3 | 41.88 ± 1.5 mN/m | 1214.8 ± 5.2 kg/m3 | 41.33 ± 1.4 mN/m | 1210.4 ± 5.1 kg/m3 |

— the NIST ThermoML archive (doi:10.1016/j.jct.2010.08.002)
